Laboratory results reported in PMC7603461, “Synthesis and in vitro characterization of the genotoxic, mutagenic and cell-transforming potential of nitrosylated heme” (Archives of Toxicology, 2020).
Read-outs that look alike come from different tables or passages of the source.

Experiments:
[1] = test system: Caco-2 cells; test: WST-1 cytotoxicity assay; type: cell-based, human; details: 50 µM
Procedure: (§1) The cellular uptake of NO-heme and hematin was qualitatively investigated by using the expression of the intracellular heme-degrading protein heme oxygenase 1 (HO-1) as surrogate marker. Its expression was analyzed via SDS-PAGE and Western blotting in NO-heme-treated Caco-2 cells. Beforehand, the cytotoxicity of the heme species as well as solvents was evaluated using a commercial kit measuring cell viability based on the WST-1 reagent obtained from Roche Diagnostics (Mannheim, Germany) and performed according to the manufacturer's instructions. Briefly, 5 × 10^4 cells/well were seeded in 96-well plates (TPP) and incubated for 24 h. Then, the cells were treated with the test substances in triplicate for a further 24 h before they were washed with phosphate buffered saline (PBS) and incubated for 1.5 h with 100 μl/well medium supplemented with 10% (v/v) WST-1 reagent. Finally, absorption was measured at 450 nm (with a reference wavelength at 650 nm). For HO-1 expression analysis, Caco-2 cells (3 × 10^5/3.5 cm plate) were treated for 24 h as mentioned above, with 2% acetone/H2O and 2% acetone/NaOH serving as solvent controls. […] After final washings steps, proteins were detected with enhanced chemoluminescence using an Azure 300 CL imaging system (Azure biosystems, Dublin, USA). […]

[2] = test system: Salmonella typhimurium strain TA1535
Procedure: (§2) The Ames test was performed according to the pre-incubation method described by Mortelmans and Zeiger ([2000]), albeit with slight modifications. Briefly, the lyophilized Salmonella typhimurium strains TA100 (lot number 5220D, Trinova, Gießen, Germany) and TA1535 (lot number 5209D, Trinova) were cultured overnight in 50 ml nutrient broth no. 2 (Thermo Scientific) at 37 °C. Subsequently, the bacterial cultures were shaken for two hours at 125 rpm and 37 °C until the suspension reached an optical density of 1–1.3 at 600 nm. Then, 100 µl of the suspension were mixed with 500 µl of sodium phosphate buffer (final concentrations: 12 mM NaH2PO4, 88 mM Na2HPO4 [pH 7.4]; all components purchased from Carl Roth) and 50 µl of the test compound. Sodium azide (Sigma-Aldrich) was used as positive control and dissolved in ultrapure water. The bacteria were mixed and incubated with the test compounds for 30 min at 37 °C prior to being plated and further incubated for 48 h at 37 °C. Finally, the number of grown revertant colonies was counted.

[3] = test system: Salmonella typhimurium strain TA100
Procedure: as §2

[4] = test system: CHO-K1 cells; type: cell-based, Chinese hamster
Procedure: (§3) The investigation of potential cytotoxic effects induced by NO-heme in CHO-K1 cells was performed using a commercial cell proliferation kit based on the MTT reagent obtained from Roche Diagnostics and performed according to the manufacturer's instructions. Briefly, 3.5 × 10^4 cells/well were seeded in 96-well plates (Greiner Diagnostic, Balingen, Germany). Approximately 24 h later, the cells were treated with different NO-heme and acetone concentrations for another 24 h. Subsequently, cells were incubated with the MTT solution for 4 h, before 100 µl DMSO (Carl Roth) were added and absorbance was measured at a wavelength of 570 nm using a microplate reader (EL600; BioTek Instruments, Winooski, USA). The mitochondrial metabolic activity of NO-heme-treated cells was thereby compared to the vehicle control. The HPRT assay was performed according to OECD test guideline no. 476 (OECD [2016]) without exogenous metabolic activation. Briefly, 5 × 10^5 cells per sample were seeded in a 75 cm^2 cell culture flask (Greiner Bio-One) containing 15 ml of McCoy’s 5A medium. […] After another period of 9 days, colonies resistant to 6-thioguanine were fixed with methanol (Carl Roth), stained with methylene blue (Carl Roth) and counted. For the final evaluation of the test, the absolute number of mutations per one million CHO-K1 cells was calculated.

[5] = exposure to UV light and oxygen (sunlight and air), room temperature
Procedure: For the analysis of stability, NO-heme was stored in 15 ml centrifuge tubes (Greiner Bio-One, Frickenhausen, Germany) under different light and atmospheric conditions. […] The final solution was further diluted in 80% acetone/H2O to a final volume of 12.5 ml and allocated to four centrifuge tubes containing 3 ml each. Two of the NO-heme samples were stored in the dark at room temperature, flushed with nitrogen and additionally sealed with thermoplastic film (Parafilm® M, Sigma-Aldrich). The other samples were incubated at room temperature and exposed to sunlight and air. The NO-heme content of each tube was analyzed by UV–Vis and FTIR spectroscopy after 0, 2, 4 and 24 h of incubation.

[6] = test system: Caco-2 cells; test: Single cell electrophoresis assay (comet assay), Caco-2; type: cell-based, human; details: for genotoxic effects (tail intensity): Caco-2 cells, 1 h treatment, increasing concentrations of heme species, nitrite control 100 µM
Procedure: (§4) DNA-damaging effects of NO-heme were determined in Caco-2 and BALB/c 3T3 cells using the single cell electrophoresis assay (comet assay). […] The comet assay was performed as previously reported (Briviba et al. [2016]), with the following modifications: 2.15 × 10^4 cells/well were seeded in 6-well plates (Corning, Kennebunk, USA) and cultivated for five days. At day six after seeding, the cells were treated for 1 h with the different test substances diluted in Hank’s Balanced Salt Solution (HBSS; Lonza). Hydrogen peroxide and iron sulfate (both from Sigma-Aldrich) served as positive controls. After treatment, the cells were prepared as previously published (Briviba et al. [2016]) and incubated in a specific lysis buffer (100 mM Na2EDTA, 1% Triton X-100, […] NaCl, 1% lauroyl sarcosine sodium salt, 10 mM tris(hydroxymethyl)aminomethane [TRIS] and 10% dimethyl sulfoxide; all purchased from Merck, Darmstadt, Germany) for 1 h at 4 °C. Then, microscope slides were incubated in electrophoresis buffer (1 mM Na2EDTA, 300 mM NaOH; Merck) for 20 min at room temperature, followed by an electrophoresis run at 25 V and 300 mA for 40 min. Thereafter, the slides were washed three times with TRIS buffer (0.4 M; pH 7.5) and stained using 85 µl of a 4,6-diamidino-2-phenylindole solution (5 µg ml^−1; Merck). For quantification of the results, 100 cells per slide were analyzed using a DM 400 B fluorescence microscope (Leica, Wetzlar, Germany) connected to the Comet Assay II Image Analysis System (Perceptive Instruments, Halstedt, UK).

[7] = test system: heme oxygenase 1 (HO-1) in Caco-2 cells; test: HO-1 expression as surrogate marker of cellular uptake (SDS-PAGE and Western blotting); type: cell-based, human; details: 50 and 100 µM, 24-h incubation, compared to control samples
Procedure: as §1

[8] = test system: BALB/c 3T3 cells; test: BALB/c 3T3 cell transformation assay (CTA); details: for cell-transforming potential: controls 61.54 µM DHAA
Procedure: The CTA was performed as previously described (Sasaki et al. [2012a]) and began with the seeding of 2 × 10^4 BALB/c 3T3 cells in 100 mm dishes (TPP) filled with 10 ml MEM medium. On day 1, the cells were incubated with the test substances for three days, followed by a medium change on day 4. From now on, the cells were incubated in DMEM/HAM’s F-12 medium supplemented with 2% (v/v) FCS, 100 µg ml^−1 streptomycin, 100 IU ml^−1 penicillin (all components were obtained from Biochrom) and 2 µg ml^−1 bovine pancreas insulin solution (Sigma-Aldrich). On days 7, 10, 14, 17, 21 and 24, the medium was changed and the cells were finally fixed on day 31 using ice-cold methanol. Lastly, the plates were stained with Giemsa solution and the number of type III foci formed was counted using a stereo microscope (SZX2-ILLT; Olympus, Hamburg, Germany).

[9] = test system: BALB/c 3T3 cells; test: Single cell electrophoresis assay (comet assay), BALB/c 3T3; type: cell-based, murine; details: 1 h treatment; for increase of the tail intensity (genotoxic effect): heme species up to 100 µM, nitrite control 100 µM
Procedure: as §4

[10] = test system: BALB/c 3T3 cells; test: Colony forming efficiency (CFE) cytotoxicity assay; details: for concentration at which cytotoxicity starts: CFE
Procedure: Briefly, 200 BALB/c 3T3 cells were seeded in 60 mm dishes (TPP) filled with 4 ml MEM medium. […] 3-Methylcholanthrene (MCA, Sigma-Aldrich) dissolved in DMSO was used as positive control. On day 4, the medium was removed and 4 ml fresh culture medium were added. On day 9, the cells were washed with saline, fixed with 4 ml ice-cold methanol (Carl Roth) for 10 min and then stained with Giemsa solution (Carl Roth) for 30 min. Finally, the stained dishes were washed with water and air-dried before cell colonies with a diameter of ≥ 2 mm were counted.

[11] = test system: V79 Chinese hamster lung fibroblasts; design: method as in Cajelli et al. ([1987]); details: ref Cajelli et al. ([1987]); cited from earlier work
[12] = test system: DNA; design: method as in Tamir et al. [1996]; details: at least tenfold higher than NO-heme; ref Tamir et al. [1996]; cited from earlier work
[13] = test system: CHO-K1-BH4 cells; test: In vitro mammalian cell gene mutation test (HPRT assay); type: cell-based, Chinese hamster; details: 4 h treatment, without metabolic activation, 100 µM as well as 200 µM heme species, nitrite control 100 µM
Procedure: as §3

[14] = ref Kodama et al. [1976]; Tsuda and Hasegawa [1990]; Stevanovic et al. [2000]; cited from earlier work
[15] = test system: murine cell lines; details: ref Kodama et al. [1976], Görsdorf et al. [1990]; cited from earlier work
[16] = test system: BALB/c 3T3 cells; details: ref Kodama et al. [1976]; Tsuda and Hasegawa [1990]; Stevanovic et al. [2000]; cited from earlier work
[17] = TA1535, pre-incubation method, up to 300 µM NO-heme and hematin, 1.54 mM NaN3, 100 µM NaNO2
[18] = TA100, pre-incubation method, up to 300 µM NO-heme and hematin, 1.54 mM NaN3, 100 µM NaNO2

Compound: nitrosylated heme [NO-heme]
- relative cell viability [1]: 43 % of the control
- mutagenic effects (revertant colonies) [2, 17]: no mutagenic effects were detected
- mutagenic effects (revertant colonies) [3, 18]: no mutagenic effects were detected
- relative cell viability ([4]; 50 µM): 87%
- relative cell viability ([4]; 200 µM): 59%
- time until absorbance signals in the UV–Vis spectrum are reduced [5]: two
- concentration needed to induce DNA strand breaks [6]: 100 µM
- expression of HO-1 [7]: increased expression of HO-1

Compound: C=CC1=C(C)c2cc3[n-]c(cc4[n-]c(cc5nc(cc1n2)C(C)=C5C=C)c(C)c4CCC(=O)O)c(CCC(=O)O)c3C.O.[Fe+2] [hematin]
- relative cell viability ([1]; Caco-2 cells, 24 h, WST-1): 45 % of the control
- mutagenic effects (revertant colonies) [2, 17]: no mutagenic effects were detected
- mutagenic effects (revertant colonies) [3, 18]: no mutagenic effects were detected
- amount of type III foci compared to the corresponding solvent control ([8]; 150 µM, treatment for three days): significant increase
- concentration range with statistically significant increase of tail intensity [9]: 10 to 100 µM
- increase of the tail intensity (genotoxic effect) [9]: dose-dependent increase of the tail intensity with statistically significant effects
- cytotoxicity ([10]; up to the maximum concentration of 200 µM): no sign of cytotoxicity
- genotoxic effects (tail intensity) [6]: exhibiting genotoxic effects
- expression of HO-1 [7]: increased expression of HO-1

Compound: O=CCC=O [MDA, malondialdehyde]
- mutagenicity in the HGPRT assay [11]: mutagenic potential

Compound: [N-]=[N+]=[N-].[Na+] [NaN3, Sodium azide]
- mutagenic effects (revertant colonies) [2, 17]: Except for the positive control NaN3, no mutagenic effects were detected
- mutagenic effects (revertant colonies) [3, 18]: Except for the positive control NaN3, no mutagenic effects were detected

Compound: O=C1OC(C(O)CO)C(=O)C1=O (stereo not shown) [DHAA, dehydroascorbic acid]
- cell-transforming potential ([8]; 100 µM NaNO2): no cell-transforming potential
- concentration at which cytotoxicity starts [10]: 750 µM

Compound: O=NOO [peroxynitrite]
- concentration needed to induce DNA strand breaks [12]: 1000 µM

Compound: O=N[O-].[Na+] [sodium nitrite, Sodium nitrite]
- frequencies of mutations compared to the solvent controls [13]: no genotoxic, mutagenic or cell-transforming effects
- mutagenic effects (revertant colonies) [2]: no genotoxic, mutagenic or cell-transforming effects
- mutagenic effects (revertant colonies) [3]: no genotoxic, mutagenic or cell-transforming effects
- concentrations at which mutagenic in the HPRT assay [14]: 1000 to 10000 µM
- cell-transforming potential ([8]; 100 µM NaNO2): no cell-transforming potential
- cell-transforming potential ([8]; 100 µM NaNO2, listed as nitrite): no genotoxic, mutagenic or cell-transforming effects
- increase of the tail intensity (genotoxic effect) [9]: no genotoxic, mutagenic or cell-transforming effects
- induction of DNA single strand breaks [15]: did not induce DNA single strand breaks
- concentrations leading to malignant transformation of BALB/c 3T3 cells [16]: 1000 to 10000 µM
- concentration at which cytotoxicity starts [10]: 6000 µM
- genotoxic effects (tail intensity) [6]: no genotoxic, mutagenic or cell-transforming effects
